The values that follow come from publication PMC8997913, “Lichen Secondary Metabolites Inhibit the Wnt/β-Catenin Pathway in Glioblastoma Cells and Improve the Anticancer Effects of Temozolomide” (Cells, 2022).

What is called IC50 is the concentration that inhibits the measured activity by half. One may read the viability as a read-out of living cells in per cent, often relative to untreated cells. High values mean less harm to the cells, low ones more harm to the cells.

Data set [1] in a line: Parallel artificial membrane permeability assay for the blood-brain barrier (PAMPA-BBB). It is filed as in vitro ADME. The settings on record: pH 7.4, 4 h, 37 °C; for Papp at 4 h, 24.75 µg/mL: mean ± SEM, n = 3, Pe > 1.5 high, < 1.5 low permeation predicted, read-out: Pe × 10^−6. Here is the method: The parallel artificial membrane permeability assay (PAMPA) for the blood-brain barrier (BBB) (Pion Inc., Billerica, MA, USA) was used to analyze whether the lichen secondary metabolites tested in this study were able to cross the BBB. The stock solutions (5 mg/mL) of tested compounds were prepared using DMSO. Next, the donor solution (24.75 μg/mL) using Prisma buffer (pH = 7.4; Prisma HT, Pion Inc., Billerica, MA, USA) were made. Firstly, 180 μL of the donor solution were added to the donor wells. Then the filter membranes were coated with 5 μL BBB-1 lipid solution (Pion Inc., Billerica, MA, USA) and the acceptor wells were filled with 200 μL BSB (Brain Sink Buffer, Pion Inc., Billerica, MA, USA). The plates were sandwiched together and incubated for 4 h at 37 °C (Thermo Scientific MaxQ 4450, Waltham, MA, USA). The results were determined by spectroscopic analysis (Multiskan GO microplate reader, Waltham, MA, USA), with the appropriate wavelength for a given compound (240 nm for […] salazinic acid, 250 nm for atranorin and squamatic acid, 263 nm for physodic acid, and 270 nm for lecanoric acid). […] Pe is the effective permeability coefficient (cm/s), VD-donor volume, VA-acceptor volume, Ceq-equilibrium concentration, Ceq=CD×VD+CA×VA/VD+VA , S-membrane area, and t-incubation time (in seconds). […] Samples were analyzed in triplicate, and the average was reported.

For data set [2], the system named is A-172 cells. Kind of data set: MTT test, A-172. It is filed as cell-based, human. To be noted: for number of living cells: A-172, 1–100 µM; for IC50: A 172, 48 h, three independent experiments, read-out: IC50 [uM] ± SEM A-172. Here is the method: (§1) Three human GBM cell lines were used in this study, i.e., A-172 (ATCC-CRL-1620), T98G (92090213), and U-138 MG (ATCC-HTB-16). The A-172 and U-138 MG cell lines were purchased from the American Type Culture Collection (ATCC), whereas the T98G cell line was obtained from the European Collection of Authenticated Cell Cultures (ECACC). It has been confirmed by us that O^6-methylguanine-DNA methyltransferase (MGMT), the key factor determining the response to alkylating agents, such as TMZ, is expressed in T98G and U-138 MG cells, whereas in A-172 the expression of MGMT is silenced by promoter methylation. Therefore, the cell lines differ in terms of TMZ sensitivity; A-172 is regarded as TMZ sensitive, whereas T98G and U-138 MG are TMZ resistant.
(§2) The cells were grown as monolayers (2D cell culture) in the recommended media: A-172 were grown in the ATCC-formulated DMEM (Merck, Darmstadt, Germany), whereas T98G and U-138 MG cell lines were grown in the ATCC-formulated EMEM (Merck, Darmstadt, Germany). These media were supplemented with FBS (Biowest, Nuaillé, France) to a final concentration of 10%, as well as antibiotics (penicillin and streptomycin) (Merck, Darmstadt, Germany) to the final concentrations of 1%. For the experiments, the amount of FBS was reduced to 5%. The medium for the T98G cell line was supplemented with 2 mM glutamine, 1% nonessential amino acids, and 1% sodium pyruvate (all purchased from Merck, Darmstadt, Germany).
(§3) In order to analyze the cytotoxicity of the analyzed lichen secondary metabolites, as well as to establish the appropriate concentrations for further analysis (allowing the survival of >70% of cells), we performed the MTT test. The procedure of the test was described previously. Briefly, the cells (10,000 cells per well) were seeded on the 96-well plates and left for 24 h. Afterwards, the analyzed compounds in the concentration range of 1 µM up to 100 µM were added to the cells and left for 48 h incubation. DMSO treated cells served as control. After the above-mentioned time, the cells were washed twice with warm PBS and incubated for 3 h in the presence of a fresh medium containing MTT salt (0.5 mg/mL). Then the formazan crystals were dissolved in acidic isopropanol. The absorbance was measured at 570 and 690 nm on a Tecan Infinite M200 microplate reader (Grödig, Austria). The experiments were repeated at least three times.
For orientation: Tetrazolium dyes change colour on reduction, which living cells bring about.

Data set [3] relates to T98G cells. Description: MTT test, T98G. It is filed as cell-based. The settings on record: Homo sapiens, 48 h, three independent experiments, read-out: IC50 [uM] ± SEM T98G. Here is the method: as §1, §2, §3
In data set [4] the test system is U-138 MG cells. Kind of data set: MTT test, U-138 MG. It is filed as cell-based, human. The settings on record: 48 h; for IC50: Homo sapiens, U138-MG, three independent experiments, read-out: IC50 [uM] ± SEM U-138 MG. Here is the method:
as §1, §2, §3

Data set [5] relates to U-138 MG cells. Kind of data set: Apoptosis, caspase-3/7 and 7-AAD flow cytometry, U-138 MG. It is filed as cell-based, human. The settings on record: 48 h. Here is the method:
(§4) Based on the MTT test, the lichen secondary metabolite concentrations allowing the survival of more than 70% of cells were chosen for the subsequent experiments. The compounds were added as follows: A-172 cells—atranorin 25 µM, caperatic acid 50 µM, physodic acid 25 µM, squamatic acid 25 µM, salazinic acid 50 µM, and lecanoric acid 100 µM; T98G cells—atranorin 50 µM, caperatic acid 100 µM, physodic acid 25 µM, squamatic acid 50 µM, salazinic acid 100 µM, and lecanoric acid 100 µM; U-138 MG cells—atranorin 25 µM, caperatic acid 50 µM, physodic acid 25 µM, squamatic acid 50 µM, salazinic acid 50 µM, and lecanoric acid 100 µM. As far as the TMZ treatment is concerned, it was added in the concentrations depending on the MGMT expression and methylation status, i.e., TMZ 30 µM was added to the A-172 cell line, and TMZ 100 µM was added to both the T98G and U-138 MG cell lines. In the case of the 2D culture, the cells were treated with the compounds 24 h after seeding, whereas, in regard to 3D culture, 5 days were needed to form spheroids. All subsequent analyses were performed 48 h after treatment.
(§5) The fluorescent-based analysis of apoptosis using Muse® Caspase-3/7 Kit was performed in order to analyze the percentage of live, early, and late apoptotic; total apoptotic; and dead cells in A-172, T98G, and U-138 MG GBM cells treated with lichen secondary metabolites. The principle of the method relies on the measurement of the activity of executioner caspases, i.e., caspase-3 and caspase-7, as well as analyzing the integrity of the cell membrane with the use of a dead cell marker 7-AAD. Cell seeding and treatment followed the same protocol as for cell cycle or ROS generation analysis, while the subsequent procedures were performed according to the manufacturer’s recommendations.

The subject of data set [6] is T98G cells. Kind of data set: Apoptosis, caspase-3/7 and 7-AAD flow cytometry, T98G. It is filed as cell-based, human. The settings on record: 48 h, topotecan 100 nM. Here is the method: as §4, §5
(A flow cytometer gives signals particle by particle.)

Entries after “also recorded” stand apart in the source; their conditions may differ.

In the case of `COC(=O)c1c(C)cc(OC(=O)c2c(C)cc(O)c(C=O)c2O)c(C)c1O` [Atranorin], in data set [1], the Papp at 4 h, 24.75 µg/mL was 2.2 ± 0.1 ×10⁻⁶ cm/s. Besides, the “number of living cells” value in data set [2] (48 h) was “reduced the number of living cells in the whole analyzed concentration range”. Moreover, the IC50 turned out to be 90.9 ± 3.7 µM in data set [2] (Homo sapiens), 98.6 ± 7.8 µM in data set [3] and 47.8 ± 2.16 µM in data set [4]. Also, in data set [5], the “effect on apoptosis” value is listed as “anti-apoptotic effect”.
With `CCCCCCCCCCCCCCC(C(=O)O)C(O)(CC(=O)OC)C(=O)O` (stereo not drawn) [Caperatic acid], the Papp at 4 h, 24.75 µg/mL in data set [1] is 5.2 ± 0.1 ×10⁻⁶ cm/s. The IC50 is 80.1 ± 1.88 µM in data set [2] (Homo sapiens), > 100 µM in data set [3] and > 100 µM in data set [4]. The compound also yielded a viability at 100 µM in data set [2] (Homo sapiens, A-172, highest tested concentration (100 µM), 48 h) of 11.7 ± 5.51%. In addition, in data set [5], the “effect on apoptosis” value is “anti-apoptotic effect”.
In the case of `Cc1cc(OC(=O)c2c(C)cc(O)cc2O)cc(O)c1C(=O)O` [Lecanoric acid], in data set [1], the Papp at 4 h, 24.75 µg/mL is 1.7 ± 0.2 ×10⁻⁶ cm/s. Besides, the cells killed in data set [2] (A-172, 100 µM, 48 h) was ~ 30%. Besides, the IC50 in data set [2] (Homo sapiens), in data set [3] and in data set [4] was > 100 µM each time. In addition, in data set [6], the “number of apoptotic cells vs control” value was “significant increase; also recorded: induced apoptosis”. In addition, the “number of late apoptotic cells vs control” value in data set [5] (100 µM) is on record as “increased”. The “percentage of early apoptotic cells vs control” value in data set [5] (100 µM) was “decreased”.
Regarding `Cc1cc(O)c(C=O)c2c1C(=O)Oc1c(CO)c(O)c3c(c1O2)C(O)OC3=O` (stereo not drawn) [Salazinic acid], in data set [1], the “Pe × 10^−6 (cm/s), class” value is reported as “np (np—classified as non-permeable (i.e., Pe < 0.5 × 10^−6 cm/s))”. In addition, the half-inhibitory concentration (IC50) in data set [4] was > 100 µM. Moreover, the “number of viable cells” value in data set [4] (U-138 MG, 50 µM) is given as “significantly reduced the number of viable cells”. Besides, in data set [6], the “number of apoptotic cells vs control” value was “significant increase; also recorded: induced apoptosis”.
As for `COc1cc(C)c(C(=O)Oc2cc(C)c(C(=O)O)c(O)c2C)c(O)c1C(=O)O` [Squamatic acid], in data set [1], the Papp at 4 h, 24.75 µg/mL is 0.5 ± 0.1 ×10⁻⁶ cm/s. Moreover, the “number of living cells” value in data set [2] (48 h) is given as “reduced the number of living cells in the whole analyzed concentration range”. The IC50 is 84.9 ± 3.62 µM in data set [2] (Homo sapiens), > 100 µM in data set [3] and > 100 µM in data set [4]. Also, the “number of apoptotic cells vs control” value in data set [6] is “significant increase; also recorded: induced apoptosis”.
